Measured values taken from US20180291402A1, “Linalool Composition and Method of Producing Therefor” (AJINOMOTO CO., INC., priority 2015, published 2018).

Experiments:
[1] = general statement on two-phase culture; cited from earlier work
[2] = test system: SWITCH-PphoC Δgcd/pSTV28 strain; assay: Linalool addition test (growth, O.D. value over time); format: cell-based, P. ananatis; details: reagent Linalool added at O.D. 0.6 to 0.7; tested at 1251, 837, 626 and 417 mg/L; M9 minimum medium, 34° C.; FIG. 58
Protocol: The glycerol stock of the SWITCH-PphoC Δgcd/pSTV28 strain obtained by transforming the SWITCH-PphoC Δgcd strain constructed in Example 2 with the commercially available plasmid vector pSTV28 (produced by Takara Bio Inc.) was thawed, and 50 μL of a microbial cell suspension was uniformly applied onto an LB plate containing 60 mg/L of chloramphenicol and cultured at 34° C. for 18 hours while left to stand (without agitation). […] Cultivation was carried out using a small-sized shaking culture apparatus TVS062CA (produced by Advantec Toyo Kaisha, Ltd.) for 23 hours, the shaking of 5.0 sec was stopped every 15 minutes, and the O.D. values were automatically measured.
The concentration of linalool in the culture medium was calculated from the specific gravity of the reagent Linalool (0.86 (20/4° C.)) (reference literature: actual values supplied from Wako Pure Chemical Industries, Ltd.).
The graph showing changes of the O.D. value over time measured using TVS062CA communication software (TV100070, produced by Advantec Toyo Kaisha, Ltd.) is illustrated in FIG. 58.

## C=C[C@@](C)(O)CCC=C(C)C [S-linalool, (3 S)-3,7-dimethylocta-1,6-diene-3-ol]
[1]
  solubility with respect to water: low solubility

## C=C[C@](C)(O)CCC=C(C)C [R-linalool, (3R)-3,7-dimethylocta-1,6-diene-3-ol]
[1]
  solubility with respect to water: low solubility

## C=CC(C)(O)CCC=C(C)C (stereo not drawn) [linalool, Linalool]
[2]
  concentration of linalool added to the culture medium at which the O.D. value is decreased (microbial cell growth inhibition): ≥ 626 µg/mL
